Our source for the IC50 values is ChEMBL document CHEMBL3526080, “In vitro inhibition of the bile salt export pump correlates with risk of cholestatic drug-induced liver injury in humans” (Drug Metab Dispos, 2012).

What is called IC50 is the concentration needed to halve the response being measured.

Assay [1] addresses Bile salt export pump (Rattus norvegicus, UniProt O70127). As to the kind of experiment: Inhibition of Sprague-Dawley rat Bsep expressed in plasma membrane vesicles of Sf21 cells assessed as inhibition of ATP-dependent [3H]taurocholate uptake. The assay is classed as cell membranes.
For assay [2], the target named is Bile salt export pump (Homo sapiens, UniProt O95342). The assay can be described thus: Inhibition of human BSEP expressed in plasma membrane vesicles of Sf21 cells assessed as inhibition of ATP-dependent [3H]taurocholate uptake. In kind it is cell membranes.

Some results are limits rather than exact numbers.

Sequence of Bile salt export pump (Rattus norvegicus, UniProt O70127) (O70127 whole entry): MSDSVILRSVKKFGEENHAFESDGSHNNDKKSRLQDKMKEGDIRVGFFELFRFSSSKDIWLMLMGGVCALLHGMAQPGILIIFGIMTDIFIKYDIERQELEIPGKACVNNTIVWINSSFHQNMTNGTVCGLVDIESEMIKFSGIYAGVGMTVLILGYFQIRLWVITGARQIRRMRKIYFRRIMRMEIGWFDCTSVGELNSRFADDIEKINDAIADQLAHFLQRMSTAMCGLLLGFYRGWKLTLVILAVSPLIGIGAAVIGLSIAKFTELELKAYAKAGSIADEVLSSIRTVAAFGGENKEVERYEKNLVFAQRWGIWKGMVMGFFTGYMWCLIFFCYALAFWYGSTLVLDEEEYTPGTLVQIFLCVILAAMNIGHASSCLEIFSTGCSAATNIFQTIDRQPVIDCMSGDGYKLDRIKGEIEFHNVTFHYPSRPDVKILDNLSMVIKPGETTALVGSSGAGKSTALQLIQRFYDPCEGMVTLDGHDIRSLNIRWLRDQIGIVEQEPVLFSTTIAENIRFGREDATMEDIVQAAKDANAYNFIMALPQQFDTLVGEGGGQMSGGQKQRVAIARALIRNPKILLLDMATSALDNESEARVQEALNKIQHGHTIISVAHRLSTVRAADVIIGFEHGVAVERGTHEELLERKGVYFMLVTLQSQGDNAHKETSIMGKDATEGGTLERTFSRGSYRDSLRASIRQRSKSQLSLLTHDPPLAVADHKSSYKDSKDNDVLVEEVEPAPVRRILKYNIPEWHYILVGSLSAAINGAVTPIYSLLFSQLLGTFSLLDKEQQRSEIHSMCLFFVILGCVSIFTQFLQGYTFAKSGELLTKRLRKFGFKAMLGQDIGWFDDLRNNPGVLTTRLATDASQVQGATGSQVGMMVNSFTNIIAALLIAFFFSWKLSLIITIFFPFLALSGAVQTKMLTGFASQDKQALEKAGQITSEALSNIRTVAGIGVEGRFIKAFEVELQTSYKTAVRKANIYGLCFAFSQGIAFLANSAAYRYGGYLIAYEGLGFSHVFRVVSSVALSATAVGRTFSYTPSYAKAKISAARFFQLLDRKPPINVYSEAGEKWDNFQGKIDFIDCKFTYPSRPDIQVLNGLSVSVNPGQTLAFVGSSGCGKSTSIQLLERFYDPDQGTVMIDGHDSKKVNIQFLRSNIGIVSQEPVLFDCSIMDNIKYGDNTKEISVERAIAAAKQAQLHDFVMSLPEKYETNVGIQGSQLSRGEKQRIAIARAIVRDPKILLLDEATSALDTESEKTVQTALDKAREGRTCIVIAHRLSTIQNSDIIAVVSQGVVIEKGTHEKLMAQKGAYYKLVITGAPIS
Sequence of Bile salt export pump (Homo sapiens, UniProt O95342) (O95342 whole entry): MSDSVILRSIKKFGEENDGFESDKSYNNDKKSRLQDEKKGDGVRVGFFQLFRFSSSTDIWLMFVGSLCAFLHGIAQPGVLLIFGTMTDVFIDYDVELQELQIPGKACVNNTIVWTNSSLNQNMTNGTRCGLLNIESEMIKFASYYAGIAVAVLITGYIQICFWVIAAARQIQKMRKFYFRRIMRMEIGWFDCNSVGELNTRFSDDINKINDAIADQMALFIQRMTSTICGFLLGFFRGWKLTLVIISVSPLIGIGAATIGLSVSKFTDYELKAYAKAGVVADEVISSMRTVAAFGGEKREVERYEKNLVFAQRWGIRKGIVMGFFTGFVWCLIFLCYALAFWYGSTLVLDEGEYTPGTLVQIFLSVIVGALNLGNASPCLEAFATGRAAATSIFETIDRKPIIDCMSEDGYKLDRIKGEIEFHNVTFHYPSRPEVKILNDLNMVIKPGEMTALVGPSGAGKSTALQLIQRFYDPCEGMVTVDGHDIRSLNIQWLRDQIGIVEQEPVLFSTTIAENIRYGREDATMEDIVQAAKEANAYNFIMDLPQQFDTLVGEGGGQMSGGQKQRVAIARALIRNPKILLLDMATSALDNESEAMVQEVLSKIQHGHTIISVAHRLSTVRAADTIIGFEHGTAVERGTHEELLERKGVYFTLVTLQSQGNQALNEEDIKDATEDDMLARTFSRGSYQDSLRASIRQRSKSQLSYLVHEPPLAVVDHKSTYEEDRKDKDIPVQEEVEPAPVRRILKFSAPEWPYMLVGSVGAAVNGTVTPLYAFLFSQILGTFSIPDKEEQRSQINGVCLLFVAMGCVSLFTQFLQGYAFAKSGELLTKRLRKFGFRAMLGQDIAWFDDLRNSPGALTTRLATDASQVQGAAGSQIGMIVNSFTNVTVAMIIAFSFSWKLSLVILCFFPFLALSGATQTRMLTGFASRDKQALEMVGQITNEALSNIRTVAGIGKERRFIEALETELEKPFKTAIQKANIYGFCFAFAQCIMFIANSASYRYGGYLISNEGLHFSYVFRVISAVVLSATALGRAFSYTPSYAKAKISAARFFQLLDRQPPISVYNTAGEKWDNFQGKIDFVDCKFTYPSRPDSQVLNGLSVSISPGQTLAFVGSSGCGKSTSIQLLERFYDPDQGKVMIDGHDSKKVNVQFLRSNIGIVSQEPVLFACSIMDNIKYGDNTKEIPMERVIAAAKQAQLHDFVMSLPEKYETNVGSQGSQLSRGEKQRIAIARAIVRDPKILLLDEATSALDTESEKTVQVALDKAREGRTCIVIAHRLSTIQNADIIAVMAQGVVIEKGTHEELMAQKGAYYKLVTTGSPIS

`CC(C)NNC(=O)c1ccncc1` [IPRONIAZID]: the IC50 in assay [1] and in assay [2] was more than 1000 µM in each case.

For `Cc1oncc1C(=O)Nc1ccc(C(F)(F)F)cc1` [LEFLUNOMIDE], the half-inhibitory concentration (IC50) in assay [1] worked out at 112 µM; in assay [2], 177 µM.

With `CCc1ccc(CCOc2ccc(CC3SC(=O)NC3=O)cc2)nc1` (stereo not drawn) [PIOGLITAZONE], the figures for the IC50 in assay [1] and in assay [2] were 2 µM and 0.3 µM, respectively.

Regarding `Cc1ccc(C(=O)c2cc(O)c(O)c([N+](=O)[O-])c2)cc1` [TOLCAPONE], the concentration for half-maximal inhibition (IC50) in assay [1] came out at 47.2 µM; in assay [2] it was 120 µM.

As to `CCC(=O)O[C@]1(C(=O)CCl)[C@@H](C)C[C@H]2[C@@H]3CCC4=CC(=O)C=C[C@]4(C)[C@@]3(F)[C@@H](O)C[C@@]21C` [CLOBETASOL PROPIONATE], the IC50 in assay [1] worked out at 35 µM; in assay [2], 8.5 µM.

As for `CN(C)CCN(Cc1cccs1)c1ccccn1`, the IC50 in assay [1] and in assay [2] was more than 1000 µM in each case.

Take `O=C(O)[C@H]1/C(=C/CO)O[C@@H]2CC(=O)N21` [CLAVULANIC ACID]: the IC50 in assay [1] and in assay [2] was more than 1000 µM in each case.

Take `C[C@H]1COc2c(N3CCN(C)CC3)c(F)cc3c(=O)c(C(=O)O)cn1c23` [LEVOFLOXACIN]: the IC50 in assay [1] and in assay [2] was more than 1000 µM each time.

As to `Cc1onc(-c2c(F)cccc2Cl)c1C(=O)N[C@@H]1C(=O)N2[C@@H]1SC(C)(C)[C@@H]2C(=O)O` [FLOXACILLIN], the values for the IC50 in assay [1] and in assay [2] were 429 µM and 209 µM, respectively.

Take `C[N+](C)(C)CC(=O)O` [BETAINE]: the IC50 in assay [1] and in assay [2] was more than 1000 µM each time.

In the case of `CN1CCC(=C2c3ccccc3CC(=O)c3sccc32)CC1` [KETOTIFEN], the IC50 in assay [1] is more than 1000 µM; in assay [2] it was 738 µM.

In the case of `NNC(=O)c1ccncc1` [ISONIAZID], the IC50 in assay [1] and in assay [2] was more than 1000 µM throughout.

As for `CC(=O)Nc1ccc(OCC(O)CNC(C)C)cc1` (stereo not drawn) [PRACTOLOL], the IC50 in assay [1] and in assay [2] was more than 1000 µM in each case.

On to `O=C(O)c1cc(=O)c2c(OCC(O)COc3cccc4oc(C(=O)O)cc(=O)c34)cccc2o1` [CROMOLYN], for which the IC50 in assay [1] and in assay [2] was more than 1000 µM throughout.

On to `CCCN(CCC)S(=O)(=O)c1ccc(C(=O)O)cc1` [PROBENECID], for which the IC50 in assay [1] is 510 µM; in assay [2] it was 565 µM.

In the case of `CCc1nn(CCCN2CCN(c3cccc(Cl)c3)CC2)c(=O)n1CCOc1ccccc1` [NEFAZODONE], the IC50 stood at 17.4 µM in assay [1] and 4.2 µM in assay [2].

With `CCN1CCCC1CNC(=O)c1cc(S(N)(=O)=O)ccc1OC` (stereo not drawn) [SULPIRIDE], the IC50 in assay [1] and in assay [2] was more than 1000 µM each time.

On to `N[C@@H]1CON=C1O` [CYCLOSERINE], for which the IC50 in assay [1] and in assay [2] was more than 1000 µM each time.

Regarding `CCOC(=O)c1ncn2c1CN(C)C(=O)c1cc(F)ccc1-2` [FLUMAZENIL], the IC50 in assay [1] and in assay [2] was more than 1000 µM throughout.
